Series [1] relates to BT-474 breast cancer cells. As to the kind of experiment: BT-474 cell line-derived (CDX) subcutaneous xenograft model. The conditions noted are these: BT-474 CDX; tucatinib 50 mg/kg orally twice daily; T-DM1 10 mg/kg IV single dose; nine animals per arm. The class given is in vivo, mice. As for the experimental part:
Cell line-derived (CDX) BT-474 breast cancer cells were implanted subcutaneously into the flanks of female immunocompromised mice. […] Each study arm was comprised of nine animals each. Tumor volume was monitored until the designated endpoint of the study. P-values were determined by t-test analysis comparing the tucatinib/T-DM1 combination to the closest single agent arm (ref brackets). In this model, the combination of tucatinib and T-DM1 produced three complete responses and six partial responses, while tucatinib alone generated eight partial responses, and T-DM1 alone generated nine partial responses.

Series [2] relates to CTG-0708 model. As to the kind of experiment: T-DM1-resistant HER2+ patient-derived (PDX) breast cancer model CTG-0708. Format: in vivo, mice. As for the experimental part: (§1) For these experiments, two T-DM1-resistant breast cancer tumor models were selected which scored 3+ by IHC and had metastasized to the lung. Tumor fragments were implanted subcutaneously into the flanks of immunocompromised mice. […] Each study arm was comprised of eight animals each. Tumor volume was monitored until the designated endpoint of the study. P-values were determined by t-test analysis comparing the tucatinib/T-DM1 combination to the closest single agent arm (ref brackets).

Series [3] relates to CTG-0807 model. As to the kind of experiment: T-DM1-resistant HER2+ patient-derived (PDX) breast cancer model CTG-0807. The class given is in vivo, mice. As for the experimental part: as §1
Series [4] relates to HER2+ mBC. As to the kind of experiment: Phase 1b open-label dose-escalation study ONT-380-004 of tucatinib combined with T-DM1. Format: in vivo, human. The conditions noted are these: PO BID in combination with T-DM1 3.6 mg/kg every 21 days. The method, then:
For subjects in the CNS disease-expansion cohorts, trastuzumab and taxane (together or separately) might have been given at any time prior to study enrollment as part of neoadjuvant therapy, adjuvant therapy, or therapy for metastatic disease.
Fifty-seven T-DM1-naive subjects were treated (Borges 2018). […] In these 50 subjects, the median PFS was 8.2 months (95% CI: 4.8, 10.3); the clinical benefit rate (CBR; subjects with best response of complete response (CR) or partial response [PR], or stable disease [SD] for >6 months) among 48 evaluable subjects was 58% (28 subjects). Thirty-four of 50 subjects (68%) treated with the MTD had measurable disease and were evaluable for response with an objective response rate (ORR) of 47% (1 subject with CR, 15 subjects with PR 14 subjects with SD, and 4 subjects with disease progression). Among the subjects whose disease responded to treatment, the median duration of response (DOR) was 6.9 months (95% CI: 2.8, 19.8).

In series [5] the target is T1, HER2 (Homo sapiens, UniProt P04626).
T1 construct: endogenous in cells; host or cells: SK-BR-3
As to the kind of experiment: HER2 internalization assays with fluorescently-labeled trastuzumab (AF488, QF) in SK-BR-3 cells. The conditions noted are these: tucatinib 100 nM. Format: cell-based. The method, then:
To probe the dynamics of HER2 at the cell surface upon binding to antibody therapeutics, HER2 internalization assays were conducted over the course of 72 hours. […] FIGS. 10A and 10B show the dynamics of HER2 at the cell surface upon binding to antibody therapeutics.
To probe the dynamics of HER2 at the cell surface upon binding to antibody therapeutics in the presence or absence of tucatinib (100 nM), SK-BR-3 cells were incubated with fluorescently-labeled trastuzumab to mark HER2 at the cell surface as shown in FIGS. 10A and 10B. Excess antibody was washed out. Cells were imaged at time points spanning 72 hours to observe internalization of surface-bound antibody. Concurrent experiments were conducted with trastuzumab labeled with QF […], a quenched fluor which fluoresces upon lysosomal processing and can serve as a proxy for antibody catabolism.

Series [6] has as its target T1, HER2. The experiment in a line: Plasma membrane-associated HER2 levels by quantitative FACS (qFACS) after tucatinib treatment. The class given is cell-based. The note with it: BT-474, SK-BR-3, HCC-1419, UACC-893; tucatinib 30 nM or 100 nM; 24 hours and 48 hours. The method, then:
(§2) To assess changes to HER2 protein levels upon treatment with tucatinib, HER2-amplified breast cancer cell lines were analyzed by Western blot and quantitative FACS (qFACS). HER2 protein levels were determined for BT-474, SK-BR-3, HCC-1419, and UACC-893 after treatment with tucatinib at either 30 nM or 100 nM doses, for the duration of 24 hours and 48 hours.
Cell surface levels of HER2 were determined for BT-474, SK-BR-3, HCC-1419, and UACC-893 after treatment with tucatinib at either 30 nM or 100 nM doses, for the duration of 24 hours and 48 hours. Plasma membrane-associated levels of HER2 were determined by quantitative FACS (qFACS) analysis after exclusion of dead cells. In all four cell lines tested, HER2 levels at the cell surface increased after treatment with tucatinib.

Series [7] has as its target T1, HER2. The experiment in a line: HER2 total protein levels by western blotting (WES system) after tucatinib treatment. The conditions noted are these: BT-474, SK-BR-3, HCC-1419, UACC-893; tucatinib 30 nM or 100 nM; 24 hours and 48 hours. Format: cell-based. The method, then: as §2
HER2 protein levels were determined for BT-474, SK-BR-3, HCC-1419, and UACC-893 after treatment with tucatinib at either 30 nM or 100 nM doses, for the duration of 24 hours and 48 hours. Protein lysates were generated from cells harvested at each timepoint. HER2 total protein levels were determined by western blotting using a WES™ system, and normalized against GAPDH levels as a loading control. In all four cell lines tested, HER2 total protein levels increased after treatment with tucatinib.

For series [8], the target named is P-gp (Homo sapiens, UniProt P08183). The conditions noted are these: concomitant use with digoxin; cited from earlier work.
The mark [9] stands for this setting: CTG-0708 PDX, tucatinib 50 mg/kg orally twice daily, T-DM1 10 mg/kg IV single dose, eight animals per arm.
Where [10] appears, read: CTG-0807 PDX, tucatinib 50 mg/kg orally twice daily, T-DM1 10 mg/kg IV single dose, eight animals per arm.

T1 sequence (P04626 23-1255): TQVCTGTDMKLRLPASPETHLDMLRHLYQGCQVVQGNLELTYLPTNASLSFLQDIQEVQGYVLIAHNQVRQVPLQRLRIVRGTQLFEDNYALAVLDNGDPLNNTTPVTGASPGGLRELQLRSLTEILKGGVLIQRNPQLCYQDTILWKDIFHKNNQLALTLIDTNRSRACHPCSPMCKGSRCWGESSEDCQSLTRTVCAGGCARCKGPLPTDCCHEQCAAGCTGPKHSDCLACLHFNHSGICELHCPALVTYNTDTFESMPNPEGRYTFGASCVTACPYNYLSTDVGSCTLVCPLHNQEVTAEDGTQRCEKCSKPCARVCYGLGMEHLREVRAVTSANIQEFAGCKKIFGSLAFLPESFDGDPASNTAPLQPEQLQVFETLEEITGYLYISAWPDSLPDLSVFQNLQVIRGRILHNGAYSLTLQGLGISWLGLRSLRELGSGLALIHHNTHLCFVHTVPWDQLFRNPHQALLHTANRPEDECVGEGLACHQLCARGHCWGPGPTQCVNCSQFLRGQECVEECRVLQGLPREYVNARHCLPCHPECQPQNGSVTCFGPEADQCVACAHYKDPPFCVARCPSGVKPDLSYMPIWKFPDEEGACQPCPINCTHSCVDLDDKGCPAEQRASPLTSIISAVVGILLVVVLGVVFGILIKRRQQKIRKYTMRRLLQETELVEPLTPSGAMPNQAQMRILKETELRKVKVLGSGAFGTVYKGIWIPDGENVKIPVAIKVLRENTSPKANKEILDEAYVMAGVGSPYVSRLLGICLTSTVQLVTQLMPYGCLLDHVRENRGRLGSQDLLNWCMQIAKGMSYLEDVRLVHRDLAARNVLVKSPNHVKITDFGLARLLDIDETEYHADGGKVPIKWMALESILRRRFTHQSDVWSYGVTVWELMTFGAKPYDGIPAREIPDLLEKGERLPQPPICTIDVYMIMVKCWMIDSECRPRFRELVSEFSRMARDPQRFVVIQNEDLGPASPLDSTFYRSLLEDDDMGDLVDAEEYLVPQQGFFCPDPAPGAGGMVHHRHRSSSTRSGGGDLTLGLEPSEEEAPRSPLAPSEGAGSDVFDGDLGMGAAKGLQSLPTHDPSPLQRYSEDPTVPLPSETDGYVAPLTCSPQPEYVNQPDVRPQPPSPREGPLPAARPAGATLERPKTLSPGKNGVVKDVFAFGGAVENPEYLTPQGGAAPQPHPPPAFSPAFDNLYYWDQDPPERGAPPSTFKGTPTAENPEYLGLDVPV
Chain of P-gp (P08183 whole entry): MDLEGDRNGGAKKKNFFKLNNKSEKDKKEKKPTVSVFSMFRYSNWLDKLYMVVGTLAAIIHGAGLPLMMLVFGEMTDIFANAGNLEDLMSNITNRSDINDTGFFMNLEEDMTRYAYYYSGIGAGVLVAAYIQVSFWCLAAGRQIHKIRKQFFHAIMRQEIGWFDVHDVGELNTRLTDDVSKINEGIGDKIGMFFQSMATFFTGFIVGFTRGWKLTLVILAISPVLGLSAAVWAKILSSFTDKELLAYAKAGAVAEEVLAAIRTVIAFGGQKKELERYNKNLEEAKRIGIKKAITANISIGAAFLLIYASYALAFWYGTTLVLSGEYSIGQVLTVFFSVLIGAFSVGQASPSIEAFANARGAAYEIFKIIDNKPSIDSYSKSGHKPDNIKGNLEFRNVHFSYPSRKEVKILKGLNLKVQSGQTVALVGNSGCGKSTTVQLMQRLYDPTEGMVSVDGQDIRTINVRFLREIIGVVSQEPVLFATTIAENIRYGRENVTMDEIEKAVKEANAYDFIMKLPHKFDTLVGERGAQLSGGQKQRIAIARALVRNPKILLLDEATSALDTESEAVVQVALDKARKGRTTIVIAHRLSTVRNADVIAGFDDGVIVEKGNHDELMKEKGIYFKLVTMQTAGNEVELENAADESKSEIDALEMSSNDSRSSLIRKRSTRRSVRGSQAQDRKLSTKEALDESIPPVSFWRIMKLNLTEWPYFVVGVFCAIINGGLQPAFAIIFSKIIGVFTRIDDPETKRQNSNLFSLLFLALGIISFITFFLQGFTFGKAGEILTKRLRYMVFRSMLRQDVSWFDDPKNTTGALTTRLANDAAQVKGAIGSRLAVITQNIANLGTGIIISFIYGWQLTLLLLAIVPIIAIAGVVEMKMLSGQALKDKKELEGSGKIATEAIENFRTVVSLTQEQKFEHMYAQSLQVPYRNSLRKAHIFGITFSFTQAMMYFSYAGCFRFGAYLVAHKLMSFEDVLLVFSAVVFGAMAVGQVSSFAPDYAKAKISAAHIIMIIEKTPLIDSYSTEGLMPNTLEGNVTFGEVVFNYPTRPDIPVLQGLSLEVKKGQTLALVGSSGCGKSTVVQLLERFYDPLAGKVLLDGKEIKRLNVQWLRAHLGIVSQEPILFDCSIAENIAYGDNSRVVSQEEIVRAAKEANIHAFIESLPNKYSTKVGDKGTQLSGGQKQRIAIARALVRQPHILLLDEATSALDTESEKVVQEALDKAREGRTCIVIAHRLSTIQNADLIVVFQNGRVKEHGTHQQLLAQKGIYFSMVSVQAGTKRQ

As for “ado-trastuzumab emtansine [T-DM1, reference compound]”, the partial responses result in series [1] was “nine”; in series [2] (setting [9]), “no partial or complete responses”; in series [3] (setting [10]), “no partial or complete responses”. The complete responses entry in series [2] (setting [9]) and in series [3] (setting [10]) was “no partial or complete responses” throughout.

Consider `Cc1cc(Nc2ncnc3ccc(NC4=NC(C)(C)CO4)cc23)ccc1Oc1ccn2ncnc2c1` [tucatinib], for which, in series [4], the “maximum-tolerated dose (MTD) of tucatinib” value is listed as 300 mg. The “dwell time of HER2 at the cell surface” value in series [5] (initial effect) was “increased the dwell time of HER2 at the cell surface”. Further, in series [5] (later timepoints, up to 72 hours), the “internalization and lysosomal processing of HER2 bound to trastuzumab” value was “HER2 bound to trastuzumab was internalized and directed towards lysosomes”. Besides, the values for the partial responses result in series [1], in series [2] (setting [9]) and in series [3] (setting [10]) were “eight”, “two” and 6, respectively. In addition, in series [6], the “HER2 levels at the cell surface” value is on record as “increased”. Further, the “HER2 total protein levels (normalized against GAPDH)” value in series [7] is given as “increased”. The “effect on digoxin concentrations (drug interaction)” value in series [8] is given as “increases digoxin concentrations”. Besides, the “tumor growth / tumor control” value in series [2] (T-DM1 resistant PDX model CTG-0708) and in series [3] (T-DM1 resistant PDX model CTG-0807) was “inhibited tumor growth” each time.

The record behind these values is patent publication US20220387618A1, “METHODS OF TREATING HER2 POSITIVE BREAST CANCER WITH TUCATINIB IN COMBINATION WITH AN ANTI-HER2 ANTIBODY-DRUG CONJUGATE” (Seagen Inc., priority 2019, published 2022).
